Assay results: US6818407B2, “Anti-endotoxic antimicrobial cationic peptides and methods of use therfor” (priority 1998, dated 2004)

Assays:
[1] = system: β-lactamase derepressed mutant (H547) of P. aeruginosa; test: microbe, parasite or virus in culture; format: cell-based; settings: P. aeruginosa H547; for (B) MIC of Carb when combined with peptide: Carbenicillin with peptide at concentration (A); for MIC A MIC of Peptides: peptide alone; for (A) Peptide doses together with Carb: peptide concentration in combination with Carbenicillin
Procedure: (§1) The biological activity of the peptides can be determined by standard methods known to those of skill in the art, such as Aminimal inhibitory concentration (MIC)≅ assay described in the present examples, whereby the lowest concentration at which no change in OD is observed for a given period of time is recorded as MIC. Alternatively, Afractional inhibitory concentration (FIC)≅ is also useful for determination of synergy between the peptides of the invention, or the peptides in combination with known antibiotics. FICs are performed by checkerboard titrations of peptides in one dimension of a microtiter plate, and of antibiotics in the other dimension, for example. The FIC is calculated by looking at the impact of one antibiotic on the MIC of the other and vice versa. […] Preferably, an FIC of less than 0.5 is obtained for synergism. As used herein, FIC can be determined as follows: [formula]
(§2) To test whether the peptides of the invention synergize with various antibiotics, the following method was employed. Fractional Inhibitory Concentration (FIC) was used to determine synergy of peptides combined with antibiotics (e.g., carbenicillin/ciprofloxacin) against Pseudomonas aeruginosa. The following methodology was followed:
(§3) (1) Determination of MIC of cationic peptides (MIC A):
(§4) 100 μl Mueller Hinton broth (MHB) was added per well
(§5) 12.5 μl of 10× test concentration peptide was added per well to get final peptide concentration of e.g., 128, 64, 32, . . . 0.025 μg/ml from row 1 to 11;
(§6) 10 μl of 10^−4 dilution of overnight bacterial culture was added per well.
(§7) (2) Determination of MIC of Carbenicillin/Ciprofloxacin (MIC B):
(§8) 100 μl MHB was added per well;
(§9) 100 μl of 2× test concentration of antibiotic was added in the first well of the row, and doubling dilutions performed across the plate from column 1 to 11;
(§10) (3) Determination of MIC of antibiotics (B) when combined with peptides at concentration A:
(§11) 100 μl Carbenicillin (512 μg/ml) or Ciprofloxacin (8 μg/ml) was added in each well of column 1; doubling dilutions were performed across the plate;
(§12) 100 μl of the peptide was added in all wells of row 1, mixed, and 100 μl withdrawn and added to row 2, etc., creating a checkerboard titration.
(§13) 10 μl of 10^−4 dilution of overnight culture was added per well;
(§14) plates were incubated at 37EC for 18-24 hours. Combination MIC values A and B were taken as the lowest concentration of drug that reduced bacterial growth by more than 50% in any given column.
(§15) (4) FIC index=FICA+FICB=(A)/MIC A+(B)/MIC B. An FIC index of approximately 0.5 or less indicates synergy; 1.0 reflects additivity; and >1.0 indicates antagonism.

[2] = system: mutant (Nal B, H744) of P. aeruginosa; test: microbe, parasite or virus in culture; format: cell-based; settings: for (B) MIC of Cipro when combined with peptide: ciprofloxacin with peptide at concentration (A); for MIC A MIC of Peptides: peptide alone, P. aeruginosa mutant Nal B, H744 (Table 5); for (A) Peptide doses together with Cipro: peptide concentration in combination with ciprofloxacin
Procedure: as §1, §2, §3, §4, §5, §6, §7, §8, §9, §10, §11, §12, §13, §14, §15

[3] = system: E. coli; test: MIC, broth microdilution assay in polypropylene microtiter trays; format: cell-based; settings: average of three separate experiments
Procedure: as §1
(§16) A method which employed polypropylene microtiter trays in a broth microdilution assay was developed.

[4] = system: P. aeruginosa; test: as above; format: cell-based; settings: average of three separate experiments
Procedure: as §1, §16

[5] = system: S. epidermis; test: as above; format: cell-based; settings: average of three separate experiments
Procedure: as §1, §16

[6] = system: S. aureus; test: as above; format: cell-based; settings: average of three separate experiments
Procedure: as §1, §16

[7] = system: S. aureus K147; test: as above; format: cell-based; settings: average of three separate experiments
Procedure: as §1, §16

[8] = Lethal endotoxemia in galactosamine-sensitized mice; format: in vivo, CD-1 mice; settings: peptide 200 μg intraperitoneal within 10 min of 10 μg LPS; 24 hours post injection; 5 mice per group; no peptide 100
Procedure: To confirm this in vivo, endotoxic shock was induced by intraperitoneal injection of 10 μg of E.coli 0111:B4 LPS in phosphate-buffered saline (PBS; pH 7.2) into galactosamine-sensitized 8- to 10- week old female CD-1 mice (5 per group). In experiments involving peptides, 200 μg in 100 μl of sterile water was injected at separate intraperitoneal sites within 10 min of LPS injection. Survival was monitored at 24 hours post injection.

[9] = system: Salmonella typhi; test: Synergy study (checkerboard titration) with hen white lysozyme; format: cell-based; settings: for Lowest [CP] showing synergy: cationic peptide concentration, combined with lysozyme; for Lowest [Lyso] showing synergy: lysozyme concentration, combined with the peptide
Procedure: as §1

[10] = system: E. coli; test: as above; format: cell-based; settings: for Lowest [CP] showing synergy: cationic peptide concentration, combined with lysozyme; for Lowest [Lyso] showing synergy: lysozyme concentration, combined with the peptide
Procedure: as §1

[11] = system: P. aeruginosa (H103); test: as above; format: cell-based; settings: for Lowest [CP] showing synergy: cationic peptide concentration, combined with lysozyme; for Lowest [Lyso] showing synergy: lysozyme concentration, combined with the peptide
Procedure: as §1

Row | Compound | (B) MIC of Carb when combined with peptide [1] [mg/L] | MIC A MIC of Peptides [1] [mg/L] | (A) Peptide doses together with Carb [1] [µg/mL] | (B) MIC of Cipro when combined with peptide ([2]; Nal B, H744) | MIC A MIC of Peptides [2] [mg/L] | (A) Peptide doses together with Cipro ([2]; Nal B, H744) [µg/mL] | MIC E. coli [3] [mg/L] | MIC P. aeruginosa [4] [mg/L] | MIC S. epidermis [5] [mg/L] | MIC S. aureus [6] [mg/L] | MIC S. aureus K147 [7] [mg/L] | Mortality (%) [8] [%] | FIC for combination of cationic peptide and lysozyme [9] | Lowest [CP] showing synergy [9] [µg/mL] | Lowest [Lyso] showing synergy [9] [µg/mL] | FIC for combination of cationic peptide and lysozyme [10] | Lowest [CP] showing synergy [10] [µg/mL] | Lowest [Lyso] showing synergy [10] [µg/mL] | FIC for combination of cationic peptide and lysozyme [11] | Lowest [CP] showing synergy [11] [µg/mL] | further results
1 | H-KWKSFIKKLTSAAKKVVTTAKPLALIS-OH [CM1] | 64 | 16 | 2 | .25 mg/L | 2 | 1 | 1 | 5 | 21 | 64 | 32 | 100 | 0.53 | 0.531 | 31.3 | 0.19 | 0.041 | 7.8 | 0.28 | 0.65 | Lowest [Lyso] showing synergy [11]: 7.8 µg/mL
2 | CC[C@H](C)[C@H](NC(=O)CNC(=O)[C@@H](NC(=O)[C@H](CCCCN)NC(=O)[C@H](CCCCN)NC(=O)[C@H](Cc1ccccc1)NC(=O)[C@H](CC(C)C)NC(=O)[C@@H](N)CCCCN)[C@@H](C)CC)C(=O)NCC(=O)N[C@@H](C)C(=O)N[C@H](C(=O)N[C@@H](CC(C)C)C(=O)N[C@@H](CCCCN)C(=O)N[C@H](C(=O)N[C@@H](CC(C)C)C(=O)N[C@@H](CCCCN)C(=O)N[C@H](C(=O)N[C@@H](CC(C)C)C(=O)N[C@H](C(=O)N[C@H](C(=O)NCC(=O)N[C@@H](CC(C)C)C(=O)N1CCC[C@H]1C(=O)N[C@@H](C)C(=O)N[C@@H](CC(C)C)C(=O)N[C@@H](CCCCN)C(=O)N[C@@H](CC(C)C)C(=O)N[C@H](C(=O)N[C@@H](CC(C)C)C(=O)N[C@@H](CCCCN)C(=O)O)[C@@H](C)O)[C@@H](C)O)[C@@H](C)O)C(C)C)C(C)C)C(C)C [CM5] | 16 | 32 | 4 | .125 mg/L | 4 | 1 | 4 | 16 | 11 | >64 | 64 | 80 | 0.56 | 10.4 | 62.5 | 0.27 | 1.3 | 7.8 | 0.63 | 10.4 | FIC index ([1]; peptide + Carbenicillin, about 0.5 or less synergy, 1.0 additivity, >1.0 antagonism): 0.38; FIC index ([2]; peptide + ciprofloxacin, Nal B, H744): .75; Lowest [Lyso] showing synergy [11]: 125 µg/mL
